Measurements from ChEMBL document CHEMBL1909046, “DrugMatrix in vitro pharmacology data”.

Experiments:
[1] = DRUGMATRIX: Sodium/nucleoside co-transporter radioligand binding (ligand: nitrobenzylthioinosine); format: cell membranes, Cavia porcellus, Dunkin-Hartley, Cerebral cortex, Membrane; details: Not Active = under 50% inhibition at 10 µM
[2] = target: Beta-2 adrenergic receptor (Homo sapiens, UniProt P07550); test: DRUGMATRIX: Adrenergic beta2 radioligand binding (ligand: [3H] CGP-12177); format: cell membranes, Membrane; details: cho; Not Active = under 50% inhibition at 10 µM
Cytochrome P450 2E1 = Cytochrome P450 2E1 (Homo sapiens, UniProt P05181); details: bti-tn-5b1-4; further: in other assays of this panel Not Active means under 50% inhibition at 10 µM
Chain of Cytochrome P450 2E1 (P05181 whole entry): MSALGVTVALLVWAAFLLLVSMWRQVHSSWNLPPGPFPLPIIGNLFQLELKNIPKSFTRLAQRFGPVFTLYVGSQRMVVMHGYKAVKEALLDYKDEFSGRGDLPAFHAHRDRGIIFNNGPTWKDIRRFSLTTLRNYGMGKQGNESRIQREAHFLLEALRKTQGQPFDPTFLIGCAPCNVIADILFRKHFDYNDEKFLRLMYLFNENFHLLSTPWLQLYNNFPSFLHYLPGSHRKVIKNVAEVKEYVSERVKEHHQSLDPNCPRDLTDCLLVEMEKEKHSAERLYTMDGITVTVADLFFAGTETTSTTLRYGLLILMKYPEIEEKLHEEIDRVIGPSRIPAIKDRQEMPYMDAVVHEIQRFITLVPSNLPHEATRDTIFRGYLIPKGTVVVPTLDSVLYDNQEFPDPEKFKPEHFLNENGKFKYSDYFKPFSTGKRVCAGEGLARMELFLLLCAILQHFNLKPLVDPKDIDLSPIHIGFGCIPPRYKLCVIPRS

[3] = DRUGMATRIX: Interleukin IL-1 radioligand binding (ligand: [125I] interleukin 1beta); format: cell membranes, Membrane; details: nih3t3; Not Active = under 50% inhibition at 10 µM
[4] = DRUGMATRIX: Glutamate, Kainate radioligand binding (ligand: [3H] Kainic acid); format: cell membranes, Rattus norvegicus, Wistar, Brain, Membrane; details: Not Active = under 50% inhibition at 10 µM
[5] = DRUGMATRIX: Leukotriene, BLT (LTB4) radioligand binding (ligand: [3H]LTB4); format: cell membranes, Membrane; details: u-937; Not Active = under 50% inhibition at 10 µM
[6] = target: T1, Neuropeptide Y receptor type 1 (Homo sapiens, UniProt P25929); format: cell membranes, Membrane; details: sk-n-mc; further: in other assays of this panel Not Active means under 50% inhibition at 10 µM
T1 sequence (P25929 whole entry): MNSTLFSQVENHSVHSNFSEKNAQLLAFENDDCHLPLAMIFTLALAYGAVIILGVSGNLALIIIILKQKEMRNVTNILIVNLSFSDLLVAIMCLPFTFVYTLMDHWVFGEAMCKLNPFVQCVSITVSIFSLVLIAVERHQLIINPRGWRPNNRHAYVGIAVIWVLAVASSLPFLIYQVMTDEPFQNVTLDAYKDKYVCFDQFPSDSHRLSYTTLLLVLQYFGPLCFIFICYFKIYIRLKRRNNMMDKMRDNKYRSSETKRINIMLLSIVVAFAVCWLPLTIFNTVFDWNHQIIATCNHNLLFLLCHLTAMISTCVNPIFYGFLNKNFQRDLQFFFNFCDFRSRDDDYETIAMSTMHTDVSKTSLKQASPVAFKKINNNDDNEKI

Cytochrome P450 1A2 = target: T2, Cytochrome P450 1A2 (Homo sapiens, UniProt P05177); details: bti-tn-5b1-4; further: in other assays of this panel Not Active means under 50% inhibition at 10 µM
T2 sequence (P05177 whole entry): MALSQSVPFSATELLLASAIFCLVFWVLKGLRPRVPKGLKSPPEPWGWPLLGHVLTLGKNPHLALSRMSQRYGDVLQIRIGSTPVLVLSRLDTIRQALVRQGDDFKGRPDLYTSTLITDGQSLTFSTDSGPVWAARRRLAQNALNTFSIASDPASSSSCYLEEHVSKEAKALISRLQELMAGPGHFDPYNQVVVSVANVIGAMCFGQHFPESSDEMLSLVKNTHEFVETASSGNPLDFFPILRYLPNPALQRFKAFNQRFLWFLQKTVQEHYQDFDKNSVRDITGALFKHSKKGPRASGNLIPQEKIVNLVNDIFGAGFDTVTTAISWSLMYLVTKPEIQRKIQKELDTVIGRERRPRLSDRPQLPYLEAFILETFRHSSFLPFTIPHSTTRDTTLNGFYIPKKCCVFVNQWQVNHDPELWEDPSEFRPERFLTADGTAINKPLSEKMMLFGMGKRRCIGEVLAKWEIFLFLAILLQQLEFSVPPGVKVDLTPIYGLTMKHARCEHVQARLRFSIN

[7] = DRUGMATRIX: Calcium Channel Type L, Dihydropyridine radioligand binding (ligand: [3H] Nitrendipine); format: cell membranes, Rattus norvegicus, Wistar, Cerebral cortex, Membrane; details: Not Active = under 50% inhibition at 10 µM

CCCN(CCC)C(=O)C(CCC(=O)O)NC(=O)c1ccccc1 (centres undefined) [PROGLUMIDE]
Not Active: IC50 [1] | Ki [1] | IC50 [2] | IC50 (Cytochrome P450 2E1) | Ki (Cytochrome P450 2E1) | IC50 [3] | Ki [3] | IC50 [4] | Ki [4] | IC50 [5] | Ki [5] | IC50 [6] | IC50 (Cytochrome P450 1A2) | Ki (Cytochrome P450 1A2) | IC50 [7] | Ki [7]

NC(=O)c1cnccn1 [PYRAZINAMIDE]
Not Active: IC50 [1] | Ki [1] | IC50 [2] | IC50 (Cytochrome P450 2E1) | Ki (Cytochrome P450 2E1) | IC50 [3] | Ki [3] | IC50 [4] | Ki [4] | IC50 [5] | Ki [5] | IC50 [6] | IC50 (Cytochrome P450 1A2) | Ki (Cytochrome P450 1A2) | IC50 [7] | Ki [7]

OC(CCN1CCCCC1)(c1ccccc1)C1CCCCC1 (centres undefined) [TRIHEXYPHENIDYL]
Not Active: IC50 [1] | Ki [1] | IC50 [2] | IC50 (Cytochrome P450 2E1) | Ki (Cytochrome P450 2E1) | IC50 [3] | Ki [3] | IC50 [4] | Ki [4] | IC50 [5] | Ki [5] | IC50 [6] | IC50 (Cytochrome P450 1A2) | Ki (Cytochrome P450 1A2) | IC50 [7] | Ki [7]

Cc1cc2cc3c(C)cc(=O)oc3c(C)c2o1 [TRIOXSALEN]
Not Active: IC50 [1] | Ki [1] | IC50 [2] | IC50 (Cytochrome P450 2E1) | Ki (Cytochrome P450 2E1) | IC50 [3] | Ki [3] | IC50 [4] | Ki [4] | IC50 [5] | Ki [5] | IC50 [6] | IC50 (Cytochrome P450 1A2) | Ki (Cytochrome P450 1A2) | IC50 [7] | Ki [7]

CCCC(CCC)C(=O)O [VALPROIC ACID]
Not Active: IC50 [1] | Ki [1] | IC50 [2] | IC50 (Cytochrome P450 2E1) | Ki (Cytochrome P450 2E1) | IC50 [3] | Ki [3] | IC50 [4] | Ki [4] | IC50 [5] | Ki [5] | IC50 [6] | IC50 (Cytochrome P450 1A2) | Ki (Cytochrome P450 1A2) | IC50 [7] | Ki [7]

CCC1=C[C@@H]2CN(C1)Cc1c([nH]c3ccccc13)[C@@](C(=O)OC)(c1cc3c(cc1OC)N(C)[C@H]1[C@@](O)(C(=O)OC)[C@H](OC(C)=O)[C@]4(CC)C=CCN5CC[C@]31[C@@H]54)C2 [VINORELBINE]
Not Active: IC50 [1] | Ki [1] | IC50 [2] | IC50 (Cytochrome P450 2E1) | Ki (Cytochrome P450 2E1) | IC50 [3] | Ki [3] | IC50 [4] | Ki [4] | IC50 [5] | Ki [5] | IC50 [6] | IC50 (Cytochrome P450 1A2) | Ki (Cytochrome P450 1A2) | IC50 [7] | Ki [7]

CADMIUM DICHLORIDE
Not Active: IC50 [1] | Ki [1] | IC50 [2] | Ki [2] | IC50 (Cytochrome P450 2E1) | Ki (Cytochrome P450 2E1) | IC50 [3] | Ki [3] | IC50 [4] | Ki [4] | IC50 [5] | Ki [5] | IC50 [6] | Ki [6] | IC50 (Cytochrome P450 1A2) | Ki (Cytochrome P450 1A2) | IC50 [7] | Ki [7]
